Results: patent US20140163218A1, “NOVEL PHTHALOCYANINE DERIVATIVES FOR THERAPEUTIC USE” (MOLTENI THERAPEUTICS S.R.L., priority 2011, published 2014)
Marks after values point to notes of the source that are not given here.

Key:
[1] = Stability in water by HPLC (loss of titre and purity after 8 hours); assay type: physicochemical; conditions: 1 mg/mL in DMSO diluted 1:10 with deionised water, HPLC at time 0 and after 8 hours; result in words
Experimental: Protocol: each sample is dissolved in DMSO at the concentration of 1 mg/mL and then diluted 1:10 with deionised water. The solution is analysed in HPLC at time 0 and after 8 hours and any loss of titre and/or of purity is recorded by the following method: Column: Luna C18 (2) 150*4.6 mm (5 μm);
elution in gradient of AcOH 0.1% in water (Eluent A) and methanol (Eluent B) with % B 10-100 in 20 min or 40-100 depending on the polarity of the injected compound; flow 1 mL/min; temperature: 25° C.; injection […]; detection at 686 nm, bw 20 nm.

[2] = tested on: Candida albicans; conditions: 99.9% reduction; 1 hr incubation at 37° C.; red light 600-700 nm, 50 mW/cm^2 for 10 min, 30 J/cm^2
Experimental: (§1) The bacterial and fungal cells (ATCC of Staphylococcus aureus, Escherichia coli and Pseudomonas aeruginosa strains for the bacteria, Candida albicans for the yeasts) are grown in a Tryptic Soy Broth (TSB) liquid medium at 37° C. for 16-20 hr (bacteria) and in Sabouraud Dextrose Broth (SDB) at 37° C. for 24 hr (yeasts) in an aerobic atmosphere.
(§2) The cells are collected for centrifugation (2000 g, 15 min.) and re-suspended in sterile PBS (pH=7.3±0.1).
(§3) Exposure of the microorganisms to the photosensitiser and to the light source is carried out in wells of sterile, polystyrene, Microtiter plates, in PBS containing the desired concentration of photosensitiser. The plate is left to incubate at room temperature, for 5 min for the bacteria and for 1 hr at 37° C. for the yeasts. For lighting with red visible light a halogen lamp is used, model PDT 1200 Waldmann (A=600-700 nm) at 50 mW/cm^2 for 10 min and the total dose of light consequently used in the assay is of 30 J/cm^2.
(§4) After illuminating the bacterial or fungal suspension, and suitable dilutions thereof in sterile PBS, they are inoculated on agar plates to determine the number of residual UFCs. The plates are incubated at 37° C. for 24 hours and the results are recorded at the end of this period.

[3] = tested on: Escherichia coli; conditions: 99.9% reduction; 5 min incubation; red light 600-700 nm, 50 mW/cm^2 for 10 min, 30 J/cm^2
Experimental: as §1, §2, §3, §4

[4] = tested on: Pseudomonas aeruginosa; conditions: 99.9% reduction; 5 min incubation; red light 600-700 nm, 50 mW/cm^2 for 10 min, 30 J/cm^2
Experimental: as §1, §2, §3, §4

[5] = tested on: Staphylococcus aureus; conditions: 99.9% reduction; 5 min incubation; red light 600-700 nm, 50 mW/cm^2 for 10 min, 30 J/cm^2
Experimental: as §1, §2, §3, §4

Substance	Loss of purity (% area) [1]	Loss of titre (%) [1]	MFC, 3 log (μM) C. albicans [2]	MBC, 3 log (μM) E. coli [3]	MBC, 3 log (μM) P. aeruginosa [4]	MBC, 3 log (μM) S. aureus [5]
{bis-[3-(N-methyl-piperidin-1-ium)propyl-dipropvlsilyloxy]}silicon(IV) phthalocyanine dichloride [Compound 4]	insignificant (of ≦ to 0.1% for the loss of purity)	insig- nificant	3.13* μM	6.25 μM	50 μM	0.03 μM
{bis-[3-(m-N,N,N-trimethylammoniumphenyloxy)propyl-dipropylsilyloxyl]}silicon(IV) phthalocyanine dichloride [Compound 5]	insignificant (of ≦ to 0.1% for the loss of purity)	insig- nificant	50 μM	25 μM	25 μM	0.1 μM
{bis-[bis-(3-N,N,N-trimethylammoniumpropyl)]propylsilyloxy}silicon(IV) phthalocyanine tetrachloride [Compound 2]	insignificant (of ≦ to 0.1% for the loss of purity)	insig- nificant	>50 μM	6.25 μM	6.25 μM	0.25 μM
{bis-[bis-(p-N,N,N-trimethylammoniumphenyl)]-3-(N-methyl-piperidine-1-ium)propylsilyloxy}silicon(IV) phthalocyanine hexachloride [Compound 1]	insignificant (of ≦ to 0.1% for the loss of purity)	insig- nificant	12.5 μM	6.25 μM	6.25 μM	0.78 μM
{bis-[bis-(p-N,N,N-trimethylammoniumphenyl)]propylsilyloxy}silicon(IV) phthalocyanine tetrachloride [Compound 3]	insignificant (of ≦ to 0.1% for the loss of purity)	insig- nificant	>50 μM	3.13 μM	1.56 μM	0.05 μM
